According to PubChem BioAssay AID330 (DTP/NCI, 2004):
Several values for one entry are separate records, joined by “and”; a condition that tells them apart may be missing. Equal values may be shown once. Inconclusive results and toxic doses are left out. Rule for the calls: active = survival T/C of 150% or more; inactive = T/C below 125% in these data.

System: P388 leukemia ip, CD2F1 mice, survival T/C
Assay: NCI In Vivo Anticancer Drug Screen. Data for tumor model P388 Leukemia (intraperitoneal) in CD2F1 (CDF1) mice
Details: endpoint: median survival time, higher = longer survival
Procedure, shortened: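 Mice carrying the transplanted tumor received test compound or vehicle. Survival was recorded in each group, and the value is the treated-group measurement divided by that of the vehicle-treated control group.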

[1] = dose: 50.0 mg/kg/injection, schedule: Q01DX005 (ip), vehicle: Klucel (hydroxypropylcellulose) (HPC)
[2] = dose: 100.0 mg/kg/injection, schedule: Q01DX005 (ip), vehicle: Klucel (hydroxypropylcellulose) (HPC)
[3] = dose: 12.5 mg/kg/injection, schedule: Q01DX009 (ip), vehicle: saline
[4] = dose: 25.0 mg/kg/injection, schedule: Q01DX009 (ip), vehicle: saline
[5] = dose: 50.0 mg/kg/injection, schedule: Q01DX009 (ip), vehicle: saline
[6] = dose: 50.0 mg/kg/injection, schedule: Q01DX005 (ip), vehicle: saline
[7] = dose: 100.0 mg/kg/injection, schedule: Q01DX005 (ip), vehicle: saline
[8] = dose: 200.0 mg/kg/injection, schedule: Q01DX005 (ip), vehicle: saline
[9] = dose: 50.0 mg/kg/injection, schedule: Q01DX009 (ip), vehicle: saline with Tween-80
[10] = dose: 100.0 mg/kg/injection, schedule: Q01DX009 (ip), vehicle: saline
[11] = dose: 25.0 mg/kg/injection, schedule: Q01DX009 (ip), vehicle: saline with Tween-80
[12] = dose: 100.0 mg/kg/injection, schedule: Q04DX002 (ip), vehicle: saline with Tween-80
[13] = dose: 200.0 mg/kg/injection, schedule: Q04DX002 (ip), vehicle: saline with Tween-80
[14] = dose: 25.0 mg/kg/injection, schedule: Q01DX009 (ip), vehicle: other
[15] = dose: 50.0 mg/kg/injection, schedule: Q01DX009 (ip), vehicle: other
[16] = dose: 100.0 mg/kg/injection, schedule: Q01DX009 (ip), vehicle: other
[17] = dose: 60.0 mg/kg/injection, schedule: Q01DX005 (ip), vehicle: saline with Tween-80
[18] = dose: 120.0 mg/kg/injection, schedule: Q01DX005 (ip), vehicle: saline with Tween-80
[19] = dose: 240.0 mg/kg/injection, schedule: Q01DX005 (ip), vehicle: saline with Tween-80

Measured: T/C

CN(CC1CNc2nc(N)[nH]c(=O)c2N1C=O)c1ccc(C(=O)NC(CCC(=O)O)C(=O)O)cc1 (stereo not given)
inactive: dose: 50.0 mg/kg/injection, schedule: Q01DX009 (ip), vehicle: sodium bicarbonate 101 % of control | dose: 100.0 mg/kg/injection, schedule: Q01DX009 (ip), vehicle: sodium bicarbonate 106 % of control | dose: 200.0 mg/kg/injection, schedule: Q01DX009 (ip), vehicle: sodium bicarbonate 108 % of control

COc1cc2c(cc1OCc1ccccc1)C(Cc1cc(Br)sc1Br)N(C(C)=O)CC2 (stereo not given)
inactive: dose: 63.0 mg/kg/injection, schedule: Q01DX001 (ip), vehicle: Klucel (hydroxypropylcellulose) (HPC) 97 % of control | dose: 126.0 mg/kg/injection, schedule: Q01DX001 (ip), vehicle: Klucel (hydroxypropylcellulose) (HPC) 101 % of control | dose: 252.0 mg/kg/injection, schedule: Q01DX001 (ip), vehicle: Klucel (hydroxypropylcellulose) (HPC) 109 % of control

CSc1nc(C(N)=O)c(N)c(=O)[nH]1
inactive: dose: 50.0 mg/kg/injection, schedule: Q01DX009 (ip), vehicle: Klucel (hydroxypropylcellulose) (HPC) 109 % of control | dose: 100.0 mg/kg/injection, schedule: Q01DX009 (ip), vehicle: Klucel (hydroxypropylcellulose) (HPC) 110 % of control | dose: 200.0 mg/kg/injection, schedule: Q01DX009 (ip), vehicle: Klucel (hydroxypropylcellulose) (HPC) 117 % of control

CC(=O)OCC12C(OC(=O)c3ccccc3)C(=O)C3C(OC(C)=O)C1(OC3(C)C)C(C)(O)CC(OC(C)=O)C2OC(=O)/C=C/c1ccccc1 (stereo not given) (tested in a mixture with another compound)
inactive: dose: 25.0 mg/kg/injection, schedule: Q01DX005 (ip), vehicle: Klucel (hydroxypropylcellulose) (HPC) 100 % of control | [1] 100 % of control | [2] 102 % of control | dose: 200.0 mg/kg/injection, schedule: Q01DX005 (ip), vehicle: Klucel (hydroxypropylcellulose) (HPC) 102 % of control

CCCCCCCCCCCCC[N+]1([O-])CCCCC1
inactive: [3] 95 % of control | [4] 92 % of control | [5] 87 % of control and 89 % of control

OCC1(c2cccnc2)OCCO1
inactive: [6] 99 % of control | [7] 101 % of control | [8] 101 % of control

[Cl][Pt][Cl].[NH-]CCC[N-]CCCC[N-]CCC[NH-]
inactive: dose: 1.56 mg/kg/injection, schedule: Q04DX003 (ip), vehicle: saline 88 % of control | dose: 3.13 mg/kg/injection, schedule: Q04DX003 (ip), vehicle: saline 98 % of control and 94 % of control | dose: 6.25 mg/kg/injection, schedule: Q04DX003 (ip), vehicle: saline 107 % of control | dose: 12.5 mg/kg/injection, schedule: Q04DX003 (ip), vehicle: saline 99 % of control and 119 % of control and 123 % of control | dose: 25.0 mg/kg/injection, schedule: Q04DX003 (ip), vehicle: saline 102 % of control and 122 % of control

CCc1cccc(NC(=O)SCc2ccccc2)c1
inactive: [9] 94 % of control | dose: 100.0 mg/kg/injection, schedule: Q01DX009 (ip), vehicle: saline with Tween-80 98 % of control

Nc1nc(N)nc(CCc2nc(N)nc(N)n2)n1
inactive: [5] 103 % of control | [10] 88 % of control | dose: 200.0 mg/kg/injection, schedule: Q01DX009 (ip), vehicle: saline 98 % of control

O=[n+]1c2c(n([O-])c3cc(Cl)c(Cl)cc31)CCCC2
inactive: dose: 12.5 mg/kg/injection, schedule: Q01DX009 (ip), vehicle: saline with Tween-80 87 % of control | [11] 89 % of control | [9] 98 % of control and 86 % of control

CC(=O)Oc1c(C)c(O)c(C(C)=O)c2c1C1(C)C(=O)C(C(C)=O)=C(O)C=C1O2 (stereo not given)
inactive: dose: 6.25 mg/kg/injection, schedule: Q01DX009 (ip), vehicle: gum acacia 104 % of control and 107 % of control | dose: 12.5 mg/kg/injection, schedule: Q01DX009 (ip), vehicle: gum acacia 101 % of control and 106 % of control | dose: 25.0 mg/kg/injection, schedule: Q01DX009 (ip), vehicle: gum acacia 101 % of control and 110 % of control | dose: 50.0 mg/kg/injection, schedule: Q01DX009 (ip), vehicle: gum acacia 100 % of control and 104 % of control | dose: 100.0 mg/kg/injection, schedule: Q01DX009 (ip), vehicle: gum acacia 108 % of control and 110 % of control | dose: 200.0 mg/kg/injection, schedule: Q01DX009 (ip), vehicle: gum acacia 113 % of control and 119 % of control

C=C1C(=O)O[C@H]2[C@H]1[C@H](OC(=O)/C(C)=C\C)CC(=C)[C@@H]1[C@H](O)[C@H]3O[C@@]3(C)[C@@]12O
inactive: dose: 6.25 mg/kg/injection, schedule: Q01DX009 (ip), vehicle: saline 102 % of control | [3] 106 % of control and 111 % of control | [4] 112 % of control and 113 % of control | [5] 121 % of control | [10] 109 % of control

CN(C)C(=S)Oc1cc(-c2c(OC(=S)N(C)C)ccc3ccccc23)c2ccccc2c1
inactive: [12] 105 % of control | [13] 102 % of control | dose: 400.0 mg/kg/injection, schedule: Q04DX002 (ip), vehicle: saline with Tween-80 96 % of control

Fc1cccc(NC(=S)SCc2ccc(Cl)c(Cl)c2)c1
inactive: dose: 50.0 mg/kg/injection, schedule: Q01DX009 (ip), vehicle: suspension in saline 99 % of control | dose: 100.0 mg/kg/injection, schedule: Q01DX009 (ip), vehicle: suspension in saline 93 % of control | dose: 200.0 mg/kg/injection, schedule: Q01DX009 (ip), vehicle: suspension in saline 109 % of control

c1ccc(O[Si](Oc2ccccc2)(Oc2ccccc2)Oc2ccccc2)cc1
inactive: [14] 86 % of control | [15] 96 % of control | [16] 99 % of control

CCC(CC)(C(=O)Nc1ccc2c(c1)c(=O)c1ccccc1n2C)C(=O)Nc1ccc2c(c1)c(=O)c1ccccc1n2C
inactive: dose: 50.0 mg/kg/injection, schedule: Q01DX005 (ip), vehicle: saline with Tween-80 100 % of control | dose: 100.0 mg/kg/injection, schedule: Q01DX005 (ip), vehicle: saline with Tween-80 101 % of control | dose: 200.0 mg/kg/injection, schedule: Q01DX005 (ip), vehicle: saline with Tween-80 105 % of control

COC(=O)c1nn2c(=O)n(C(C)=O)c3ccccc3c2c1C(=O)OC
inactive: [17] 108 % of control | [18] 109 % of control | [19] 108 % of control

CC(=O)Oc1c(Cl)c(Cl)c(C#N)c(Cl)c1C#N
inactive: [11] 100 % of control and 105 % of control | [9] 105 % of control

CC1=C(C)C(=O)C(C(C)(C)CC(=O)Sc2ncnc3nc[nH]c23)=C(C)C1=O
inactive: [12] 97 % of control | [13] 99 % of control

COc1ccc2c(c1OC(C)=O)C1=CC(OC(C)=O)=CCC13CCN(C)C3C2 (stereo not given)
inactive: [6] 102 % of control | [7] 111 % of control | [8] 99 % of control

NN1C(=O)CC(c2cccc(Cl)c2)C1=O (stereo not given)
inactive: [17] 92 % of control | [18] 92 % of control | [19] 92 % of control

COC(=O)c1ncn(CC#N)n1
inactive: [6] 110 % of control | [7] 112 % of control | [8] 105 % of control

CNC(=S)N\N=C/C(/C=C/c1ccccc1)=N\NC(=S)NC
inactive: dose: 100.0 mg/kg/injection, schedule: Q01DX001 (ip), vehicle: Klucel (hydroxypropylcellulose) (HPC) 90 % of control | dose: 200.0 mg/kg/injection, schedule: Q01DX001 (ip), vehicle: Klucel (hydroxypropylcellulose) (HPC) 100 % of control

Cc1cccc(C)c1NC(=S)N1CCC(CCCC2CCN(C(=S)Nc3c(C)cccc3C)CC2)CC1
inactive: dose: 100.0 mg/kg/injection, schedule: Q04DX003 (ip), vehicle: saline with Tween-80 86 % of control | dose: 200.0 mg/kg/injection, schedule: Q04DX003 (ip), vehicle: saline with Tween-80 86 % of control

Cc1ccccc1SSCCN
inactive: [1] 103 % of control | [2] 103 % of control

CC1(C)C(C(N)=O)C(=O)NC(=O)C1C(N)=O (stereo not given)
inactive: [14] 100 % of control | [15] 100 % of control | [16] 99 % of control | dose: 200.0 mg/kg/injection, schedule: Q01DX009 (ip), vehicle: other 100 % of control | dose: 400.0 mg/kg/injection, schedule: Q01DX009 (ip), vehicle: other 105 % of control

COc1ccc(CC2c3cc(OC)c(OC)cc3CCN2C(C)=O)cc1OC (stereo not given)
inactive: dose: 3.0 mg/kg/injection, schedule: Q01DX005 (ip), vehicle: saline with Tween-80 99 % of control | dose: 6.0 mg/kg/injection, schedule: Q01DX005 (ip), vehicle: saline with Tween-80 102 % of control | dose: 12.0 mg/kg/injection, schedule: Q01DX005 (ip), vehicle: saline with Tween-80 95 % of control
